Assay results as given in PubChem BioAssay AID1919017 (Molecular Pharmacology Branch, DTP, NCI, 2023).

System: SW1271 complex spheroids with HUVEC/MSC, growth, % test/control
Experiment: Anticancer human tumor SW1271 cell line growth inhibition [AhR];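 further: spheroids exposed to agents for 7 days before readout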
Settings: for IC50: curve of first compound; for viability, T/C: stronger effect = lower value
Excerpt: Multicellular complex tumor spheroid response to aryl hydrocarbon receptor antagonists in combination with a variety of drugs and investigational agents in selected tumor cell lines
The current study was undertaken to assess response to aryl hydrocarbon receptor antagonists in combination with standard-of-care drugs and investigational agents in solid tumor complex spheroid models. Complex spheroids include a stromal component modeled by human endothelial cells (HUVEC) and fibroblasts modeled by human mesenchymal stem cells (MSCs). The concentration ranges selected for each drug and investigational agent were based upon clinically achievable concentrations if the clinical Cmax of the agent was known.
Compounds. The drugs and investigational agents: BAY 2416964 (NSC825713), GNF351 (NSC835774), CH-223191 (NSC835775), CPI-455 (NSC825282), aza-TdCyd (NSC777586), decitabine (NSC127716), belinostat (NSC758774), entinostat (NSC756642), pevonedistat (NSC761192), tazemetostat (NSC777109), talazoparib (NSC765396), olaparib (NSC753686), selinexor (NSC780203), nedisertib (M3814, NSC802822), bortezomib (NSC756655), venetoclax (NSC766270), doxorubicin (NSC123127), elimusertib (BAY189344, NSC800525), ceralasertib (AZD6738, NSC777638), TAK-243 (NSC785004), alisertib (NSC759677), etoposide (NSC141540), topotecan (NSC609699), eribulin (NSC707389), gemcitabine (NSC613327), carboplatin (NSC241240), cisplatin (NSC119875), and SN-38 (NSC673596) were obtained from the National Cancer Institute (NCI) Developmental Therapeutics Program Chemical Repository (32). The FDA-approved anticancer drug set is available from the Developmental Therapeutics Program at https://dtp.cancer.gov/organization/dscb/obtaining/available plates.htm. […] The stock solutions were prepared in dimethyl sulfoxide (DMSO, Sigma-Aldrich, St. Louis, MO, cat. D2650), except for the platinum compounds which were prepared in saline (Quality Biological, Gaithersburg, MD, cat. 114-055-101), at 800-fold the tested concentration and stored at -70 degrees C prior to their use. All drugs and investigational agents were tested over a range starting from a high concentration at or near the clinical Cmax and decreasing in half-log increments. If the clinical Cmax for an agent had not been determined, the highest concentration tested was 10 microM (Table 1).
Cell Culture. All cells were maintained in an incubator at 37 degrees C and 5% CO2 with 95% humidity. The PDC lines were cultured according to standard operating procedures established by the NCI PDMR (https://pdmr.cancer.gov). Briefly, all PDCs were thawed and cultured in Matrigel-coated flasks prepared with a working solution of 1X Ham's F-12 nutrient mix, without supplementation (Invitrogen, Waltham, MA, cat. 11765054), 100 U/mL penicillin-streptomycin (Invitrogen, cat. 15140122), and 2.5% Matrigel (Corning Inc., Corning, NY, cat. 354248) for the first three passages. All PDCs were cultured in complete DMEM/F-12 media containing advanced DMEM/F-12 (Invitrogen, cat. 12634028), 4.9% defined fetal bovine serum, heat inactivated (HyClone Laboratories Inc., Logan, UT, cat. SH30070.03HI), 389 ng/mL hydrocortisone (Sigma-Aldrich, cat. H4001), 9.7 ng/mL human EGF recombinant protein (Invitrogen, cat. PHG0313), 23.4 microg/mL adenine (Sigma-Aldrich, cat. A2786), 97.3 U/mL penicillin-streptomycin (Invitrogen, cat. 15140122), 1.9 mM L-glutamine (Invitrogen, cat. 25030081), and 9.7 microM Y-27632 dihydrochloride (Tocris Bioscience, Bristol, United Kingdom, cat. 1254). The PDCs were cultured in complete DMEM/F12 media without 10 microM Y-27632 dihydrochloride for at least two passages prior to the screen. The established cell lines NCI-H1341 and […] were cultured in DMEM/F-12, HEPES (Invitrogen, cat. 11330032), 5% defined fetal bovine serum (HyClone Laboratories Inc., cat. SH30070.03), ITS premix universal culture supplement [insulin (5 microg/mL), transferrin (5 microg/mL), and selenious acid (5 ng/mL)] […]

[1] = second compound 0.1 µM, first compound 0.0316 µM
[2] = second compound 0.1 µM, first compound 0.1 µM
[3] = second compound 0.1 µM, first compound 0.316 µM
[4] = second compound 0.1 µM, first compound 1 µM
[5] = second compound 0.1 µM, first compound 3.16 µM
[6] = second compound 0.1 µM, first compound 10 µM
[7] = second compound 0.316 µM, first compound 0.0316 µM
[8] = second compound 0.316 µM, first compound 0.1 µM
[9] = second compound 0.316 µM, first compound 0.316 µM
[10] = second compound 0.316 µM, first compound 1 µM
[11] = second compound 0.316 µM, first compound 3.16 µM
[12] = second compound 0.316 µM, first compound 10 µM
[13] = second compound 1 µM, first compound 0.0316 µM
[14] = second compound 1 µM, first compound 0.1 µM
[15] = second compound 1 µM, first compound 0.316 µM
[16] = second compound 1 µM, first compound 1 µM
[17] = second compound 1 µM, first compound 3.16 µM
[18] = second compound 1 µM, first compound 10 µM
[19] = second compound 3.16 µM, first compound 0.0316 µM
[20] = second compound 3.16 µM, first compound 0.1 µM
[21] = second compound 3.16 µM, first compound 0.316 µM
[22] = second compound 3.16 µM, first compound 1 µM
[23] = second compound 3.16 µM, first compound 3.16 µM
[24] = second compound 3.16 µM, first compound 10 µM
[25] = second compound 10 µM, first compound 0.0316 µM
[26] = second compound 10 µM, first compound 0.1 µM
[27] = second compound 10 µM, first compound 0.316 µM
[28] = second compound 10 µM, first compound 1 µM
[29] = second compound 10 µM, first compound 3.16 µM
[30] = second compound 10 µM, first compound 10 µM

Compound | IC50 (second compound 0.1 µM) [nM] | IC50 (second compound 0.316 µM) [nM] | IC50 (second compound 1 µM) [nM] | IC50 (second compound 3.16 µM) [nM] | IC50 (second compound 10 µM) [nM] | viability, T/C [1] [%] | viability, T/C [2] [%] | viability, T/C [3] [%] | viability, T/C [4] [%] | viability, T/C [5] [%] | viability, T/C [6] [%] | viability, T/C [7] [%] | viability, T/C [8] [%] | viability, T/C [9] [%] | viability, T/C [10] [%] | viability, T/C [11] [%] | viability, T/C [12] [%] | viability, T/C [13] [%] | viability, T/C [14] [%] | viability, T/C [15] [%] | also measured
Nc1ccccc1NC(=O)c1ccc(CNC(=O)OCc2cccnc2)cc1 + CC(CO)NC(=O)c1cc(-c2ccc(Cl)cc2)nn(-c2cnn(C)c2)c1=O | 1040 | 838 | 676 | 1000 | 294 | 92.2 | 89.6 | 78.5 | 43 | 34.8 | 10.7 | 103 | 85.2 | 67.3 | 41.4 | 35 | 9.29 | 87.7 | 82 | 60.4 | viability, T/C [16]: 40.8%; viability, T/C [17]: 30.2%; viability, T/C [18]: 10.4%; viability, T/C [19]: 65.2%; viability, T/C [20]: 64.7%; viability, T/C [21]: 65.5%; viability, T/C [22]: 44.9%; viability, T/C [23]: 34.5%; viability, T/C [24]: 11%; viability, T/C [25]: 70.2%; viability, T/C [26]: 63%; viability, T/C [27]: 43.5%; viability, T/C [28]: 43.6%; viability, T/C [29]: 19%; viability, T/C [30]: 11.4%
O=C(C=Cc1cccc(S(=O)(=O)Nc2ccccc2)c1)NO + CC(CO)NC(=O)c1cc(-c2ccc(Cl)cc2)nn(-c2cnn(C)c2)c1=O | 1200 | 768 | 1500 | 914 | 793 | 98.4 | 92.5 | 75.4 | 57.9 | 24.7 | 9.02 | 92.4 | 87.6 | 71.1 | 45.5 | 16.6 | 11.7 | 85.9 | 80.8 | 75.5 | viability, T/C [16]: 63%; viability, T/C [17]: 28.4%; viability, T/C [18]: 9.03%; viability, T/C [19]: 85%; viability, T/C [20]: 73.1%; viability, T/C [21]: 65.2%; viability, T/C [22]: 51.4%; viability, T/C [23]: 27%; viability, T/C [24]: 10.7%; viability, T/C [25]: 90.2%; viability, T/C [26]: 76.2%; viability, T/C [27]: 54.4%; viability, T/C [28]: 57.1%; viability, T/C [29]: 26.7%; viability, T/C [30]: 9.34%
